Common to all, as to format: biochemical
Test [1] addresses T1, MMP-7FL (full-length matrilysin) (Homo sapiens, UniProt P09237).
T1 sequence (P09237 95-267): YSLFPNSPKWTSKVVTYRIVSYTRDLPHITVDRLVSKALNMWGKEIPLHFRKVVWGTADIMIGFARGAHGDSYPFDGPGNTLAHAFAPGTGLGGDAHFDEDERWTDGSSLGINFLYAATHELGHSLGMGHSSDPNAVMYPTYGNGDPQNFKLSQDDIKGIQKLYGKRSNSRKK
Put plainly: Thiopeptolide hydrolysis inhibition assay, MMP-7FL. The note with it: thiopeptolide substrate, HEPES pH 7.0, 22° C. An excerpt: (§1) The assays measure the amount by which a test compound reduces the hydrolysis of a thiopeptolide substrate catalyzed by a matrix metalloproteinase enzyme. Such assays are described in detail by Ye et al., Biochemistry, 1992;31(45):11231-11235, hereby incorporated herein by reference.
(§2) Thiopeptolide substrates show virtually no decomposition or hydrolysis at or below neutral pH in the absence of a matrix metalloproteinase enzyme. A typical thiopeptolide substrate commonly utilized for assays is Ac-Pro-Leu-Gly-thioester-Leu-Leu-Gly-OEt. A 100 μL assay mixture will contain 50 mM of N-2-hydroxyethylpiperazine-N′-2-ethanesulfonic acid buffer (“HEPES”) at pH 7.0, 10 mM CaCl2, 100 μM thiopeptolide substrate, and 1 mM 5,5′-dithio-bis-(2-nitrobenzoic acid) (DTNB). The thiopeptolide substrate concentration may be varied from, for example, 10 to 800 μM, in order to obtain Km and Kcat values. The change in absorbance at 405 nm is monitored on a Thermo Max microplate reader (Molecular Devices, Menlo Park, Calif.) at room temperature (22° C.). The calculation of the amount of hydrolysis of the thiopeptolide substrate is based on E412=13600 M^−1 cm^−1 for the DTNB-derived product 3-carboxy-4-nitrothiophenoxide. Assays are carried out with and without matrix metalloproteinase inhibitor compounds, and the amount of hydrolysis is compared for a determination of inhibitory activity of the test compounds.
(§3) Several representative compounds have been evaluated for their ability to inhibit various matrix metalloproteinase enzymes. In Table 1, MMP-1FL refers to full-length interstitial collagenase; MMP-2FL refers to full-length Gelatinase A; MMP-3CD refers to the catalytic domain of stromelysin-1; MMP-7FL refers to full-length matrilysin; MMP-9FL refers to full-length Gelatinase B; MMP-13CD refers to the catalytic domain of collagenase 3; and MMP-14CD refers to the catalytic domain of MMP-14. Test compounds were evaluated at various concentrations, in order to determine their respective IC50 values, the micromolar concentration of compound required to cause a 50% inhibition of the catalytic activity of the respective enzyme.

Test [2] concerns the target T2, MMP-2FL (full-length Gelatinase A) (Homo sapiens, UniProt P08253).
T2 sequence (P08253 110-660): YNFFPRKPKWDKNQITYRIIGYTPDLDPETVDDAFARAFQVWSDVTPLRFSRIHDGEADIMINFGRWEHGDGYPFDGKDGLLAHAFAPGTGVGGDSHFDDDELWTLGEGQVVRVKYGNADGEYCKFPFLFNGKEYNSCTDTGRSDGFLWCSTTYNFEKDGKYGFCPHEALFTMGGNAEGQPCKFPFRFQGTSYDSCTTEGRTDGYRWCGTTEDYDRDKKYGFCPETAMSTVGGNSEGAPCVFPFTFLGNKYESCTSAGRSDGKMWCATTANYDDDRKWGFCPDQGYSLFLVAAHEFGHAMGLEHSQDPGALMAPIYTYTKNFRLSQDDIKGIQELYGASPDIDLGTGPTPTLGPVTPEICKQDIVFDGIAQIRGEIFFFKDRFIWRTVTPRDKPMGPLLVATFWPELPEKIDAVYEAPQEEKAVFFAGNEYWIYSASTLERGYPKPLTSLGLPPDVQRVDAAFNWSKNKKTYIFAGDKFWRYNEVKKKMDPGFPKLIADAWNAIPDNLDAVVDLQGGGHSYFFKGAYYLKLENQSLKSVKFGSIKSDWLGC
Put plainly: Thiopeptolide hydrolysis inhibition assay, MMP-2FL. To be noted: thiopeptolide substrate, HEPES pH 7.0, 22° C.
Excerpt: as §1, §2, §3

Test [3] concerns the target T3, MMP-1FL (full-length interstitial collagenase) (Homo sapiens, UniProt P03956).
T3 sequence (P03956 100-469): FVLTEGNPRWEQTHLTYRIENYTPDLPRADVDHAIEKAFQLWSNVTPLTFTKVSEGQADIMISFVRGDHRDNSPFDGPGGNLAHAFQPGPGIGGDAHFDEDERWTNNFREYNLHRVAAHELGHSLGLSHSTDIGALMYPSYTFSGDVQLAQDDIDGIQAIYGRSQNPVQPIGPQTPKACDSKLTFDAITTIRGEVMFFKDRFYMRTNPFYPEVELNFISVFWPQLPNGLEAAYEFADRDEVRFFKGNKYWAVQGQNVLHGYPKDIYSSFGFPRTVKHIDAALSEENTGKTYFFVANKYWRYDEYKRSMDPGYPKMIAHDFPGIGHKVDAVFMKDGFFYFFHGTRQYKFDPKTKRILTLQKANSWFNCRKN
As to the kind of experiment: Thiopeptolide hydrolysis inhibition assay, MMP-1FL. The note with it: thiopeptolide substrate, HEPES pH 7.0, 22° C.
Excerpt: as §1, §2, §3

In test [4] the target is MMP-13CD (catalytic domain of collagenase 3) (Homo sapiens, UniProt P45452). As to the kind of experiment: Thiopeptolide hydrolysis inhibition assay, MMP-13CD. To be noted: thiopeptolide substrate, HEPES pH 7.0, 22° C.
Excerpt: as §1, §2, §3

For test [5], the target named is MMP-3CD (catalytic domain of stromelysin-1) (Homo sapiens, UniProt P08254). Put plainly: Thiopeptolide hydrolysis inhibition assay, MMP-3CD. The note with it: thiopeptolide substrate, MES buffer pH 6.0.
Excerpt: as §1, §2
It should be appreciated that the assay buffer used with MMP-3CD is 50 mM of N-morpholinoethanesulfonate (“MES”) at pH 6.0 rather than the HEPES buffer at pH 7.0 described above.
as §3

The target in test [6] is MMP-9FL (full-length Gelatinase B) (Homo sapiens, UniProt P14780). Put plainly: Thiopeptolide hydrolysis inhibition assay, MMP-9FL. To be noted: thiopeptolide substrate, HEPES pH 7.0, 22° C.
Excerpt: as §1, §2, §3

Test [7] concerns the target MMP-14CD (catalytic domain of MMP-14) (Homo sapiens, UniProt P50281). As to the kind of experiment: Thiopeptolide hydrolysis inhibition assay, MMP-14CD. The note with it: thiopeptolide substrate, HEPES pH 7.0, 22° C.
Excerpt: as §1, §2, §3

SMILES strings stand for the structures.

Chain of MMP-9FL (full-length Gelatinase B) (P14780 94-707, species assumed): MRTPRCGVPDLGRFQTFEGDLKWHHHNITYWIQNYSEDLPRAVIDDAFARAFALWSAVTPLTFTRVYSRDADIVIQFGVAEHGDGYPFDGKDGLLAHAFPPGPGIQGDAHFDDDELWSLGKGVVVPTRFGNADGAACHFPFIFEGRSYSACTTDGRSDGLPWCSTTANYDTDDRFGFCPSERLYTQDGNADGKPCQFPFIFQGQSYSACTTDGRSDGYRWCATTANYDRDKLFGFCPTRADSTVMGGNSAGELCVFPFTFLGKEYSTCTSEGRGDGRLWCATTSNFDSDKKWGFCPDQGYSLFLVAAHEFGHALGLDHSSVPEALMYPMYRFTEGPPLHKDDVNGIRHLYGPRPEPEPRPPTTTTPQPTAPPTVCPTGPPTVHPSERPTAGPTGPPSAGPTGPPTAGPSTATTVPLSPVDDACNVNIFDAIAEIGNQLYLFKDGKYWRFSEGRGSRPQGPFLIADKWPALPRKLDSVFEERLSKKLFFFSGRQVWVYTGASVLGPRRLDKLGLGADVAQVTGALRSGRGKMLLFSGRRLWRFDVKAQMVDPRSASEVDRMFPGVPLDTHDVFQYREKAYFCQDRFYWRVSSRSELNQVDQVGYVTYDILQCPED
Chain of MMP-3CD (catalytic domain of stromelysin-1) (P08254 100-272 limits assumed): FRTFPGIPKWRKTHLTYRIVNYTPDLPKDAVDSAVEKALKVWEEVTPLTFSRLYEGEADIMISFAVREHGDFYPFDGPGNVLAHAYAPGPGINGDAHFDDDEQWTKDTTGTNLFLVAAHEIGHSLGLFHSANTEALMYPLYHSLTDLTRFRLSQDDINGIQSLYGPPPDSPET

Take `CC1(C)SCCN(S(=O)(=O)c2ccc3oc4ccccc4c3c2)[C@H]1C(=O)NO` [Example 8, (S)-4-(Dibenzofuran-2-sulfonyl)-2,2-dimethyl-thiomorpholine-3-carboxylic Acid Hydroxyamide]: the IC50 was 0.028 µM in test [1]; 0.015 µM in test [2]; 0.017 µM in test [3]; 0.003 µM in test [4]; 0.009 µM in test [5]; 0.26 µM in test [6]. This compound also returned a half-maximal inhibitory concentration (IC50) in test [7] of 0.04 µM.

Consider `CC1(C)SCCN(S(=O)(=O)c2ccc3c(c2)oc2ccccc23)[C@H]1C(=O)O` [Example 1, (S)-4-(Dibenzofuran-3-sulfonyl)-2,2-dimethyl-thiomorpholine-3-carboxylic Acid], for which the concentration for half-maximal inhibition (IC50) was determined as 55 µM in test [1]; 0.074 µM in test [2]; 1.42 µM in test [3]; 0.97 µM in test [4]; 0.041 µM in test [5]; 22.5 µM in test [6]. In addition, the midpoint of inhibition in test [7], the IC50, lay at 0.064 µM.

Take `CC1(C)SCCN(S(=O)(=O)c2ccc3c(c2)Cc2ccccc2-3)[C@H]1C(=O)O` [Example 5, (S)-4-(9H-Fluorene-2-sulfonyl)-2,2-dimethyl-thiomorpholine-3-carboxylic Acid]: the concentration for half-maximal inhibition (IC50) in test [1] is 100 µM; in test [2], 0.5 µM; in test [3] it was 23 µM; in test [4] it was 5.1 µM; in test [5], 0.13 µM; in test [6] it was 100 µM. In test [7], this compound yielded an IC50 of 0.84 µM.

The IC50 is the concentration that gives 50% inhibition. Low values mean greater potency, high ones weaker potency.

The values are drawn from patent publication US6559142B2, “Sulfonamide matrix metalloproteinase inhibitors” (Warner-Lambert Company, priority 2001, dated 2003).
